Patent US5990170A, “Therapeutic use of mono and bicarboxylic acid amides active at the peripheral cannabinoid receptor” (Lifegroup S.p.A., priority 1994, dated 1999)
Like-named read-outs stand apart in the source and are kept apart here.

How the values were obtained:
[1] = Solubility in water and organic solvents; conditions: for solubility in water: result in words
RBL-2H3 cells = assay: Inhibition of 3H-serotonin release induced by ADNP/DNP-HSA immunogenic stimulation in RBL-2H3 cells; format: cell-based, rat; conditions: for inhibition at 100 µM: 100 μM (Table 8); for EC50: 15 minutes release period (Table 9); for effect of anandamide co-incubation on the ability to inhibit serotonin release: co-incubation with anandamide, in words; for functional effect following receptor activation (serotonin release): result in words; for inhibition at 12.5 µM: RBL-2H3, read-out: 3H-serotonin net release inhibition (%), 12.5 μM
[2] = dmso, organic solvent or mixture
[3] = ethanol, organic solvent or mixture
[4] = Rattus norvegicus, RBL-2H3, read-out: 3H-serotonin release inhibition %, 0.2% DMSO
[5] = Rattus norvegicus, RBL-2H3, read-out: 3H-serotonin release inhibition %, 1% DMSO
[6] = Rattus norvegicus, RBL-2H3, read-out: EC50, concentration inhibiting by 50% the net release of 3H serotonin, 0.2% DMSO
[7] = Rattus norvegicus, RBL-2H3, read-out: EC50, concentration inhibiting by 50% the net release of 3H serotonin, 1% DMSO
[8] = Rattus norvegicus, RBL-2H3, read-out: 3H-serotonin release inhibition %, 0.2% DMSO, 30 μM (Table 8)
[9] = chloroform, organic solvent or mixture
[10] = Rattus norvegicus, RBL-2H3, 0.25 h, 100 μM, 0.1% DMSO and 0.1% ethanol (Table 3), read-out: 3H-serotonin net release (%)
[11] = read-out: ED50, inhibition of 3H-serotonin release, + anandamide (12.5 μM) (Table 5), 15 min
[12] = Rattus norvegicus, RBL-2H3, 0.25 h, read-out: 3H-serotonin net release (%)
[13] = Rattus norvegicus, RBL-2H3, 0.25 h, read-out: ED50
[14] = Rattus norvegicus, + WIN 55,212-2 (30 μm) (Table 6)
[15] = Rattus norvegicus, - WIN (Table 6)

| SMILES | solubility [1, 2] [µg/mL] | solubility [1, 3] [µg/mL] | solubility in water [1] | EC50 (RBL-2H3 cells; [6]) [µM] | EC50 (RBL-2H3 cells; [7]) [µM] | further results |
| --- | --- | --- | --- | --- | --- | --- |
| CCCCCCCCCCCCCCCC(=O)N[C@H](CO)c1ccccc1 [Example 2, N-palmitoyl-[(S)-2-amino-2-phenylethanol]] | > 10000 | > 10000 | scarcely soluble | 1.8 | 5 | inhibition at 100 µM (RBL-2H3 cells; [4]): 100%; inhibition at 100 µM (RBL-2H3 cells; [5]): 100% |
| CCCCCCCCCCCCCCCC(=O)NCC(O)c1ccccc1 (stereo not shown) [Example 3, N-(2-hydroxy-2-phenylethyl)-palmitoylamide] | > 10000 | > 10000 | scarcely soluble | 1.2 | 4 | inhibition at 100 µM (RBL-2H3 cells; [4]): 100%; inhibition at 100 µM (RBL-2H3 cells; [5]): 100% |
| CCCCCCCCCCCCCCCC(=O)N[C@@H](CO)[C@@H](O)c1ccccc1 [Example 4, N-palmitoyl-[(1S,2S)-(+)-2-amino-1-phenyl-1,3-propanediol]] | > 10000 | > 10000 | scarcely soluble | 78 | 1.05 | inhibition at 100 µM (RBL-2H3 cells; [4]): 100%; inhibition at 100 µM (RBL-2H3 cells; [5]): 100% |
| CCCCCCCCCCCCCCCC(=O)N[C@H](C)[C@@H](O)c1ccccc1 [Example 5, N-palmitoyl-[(1S,2R)-(+)-norephedrine]] | > 10000 | > 10000 | scarcely soluble | 8 | 7.6 | inhibition at 30 µM (RBL-2H3 cells; [8]): 82%; inhibition at 100 µM (RBL-2H3 cells; [5]): 100% |
| CCCCCCCCCCCC(=O)N[C@H](C)[C@@H](O)c1ccccc1 [Example 6, N-lauroyl-[(1S,2R)-(+)-norephedrine]] | > 10000 | > 10000 | scarcely soluble | 30 | 8.8 | – |
| CCCCCCCCCCCCCCCC(=O)N[C@@H](C)[C@H](O)c1ccccc1 [Example 7, N-palmitoyl-[(1R,2S)-(-)-norephedrine]] | > 10000 | > 10000 | scarcely soluble | 4.7 | – | inhibition at 30 µM (RBL-2H3 cells; [8]): 93%; inhibition at 100 µM (RBL-2H3 cells; [5]): 100% |
| CCCCCCCCCCCC(=O)N[C@@H](C)[C@H](O)c1ccccc1 [Example 8, N-lauroyl-[(1R,2S)-(-)-norephedrine]] | > 10000 | > 10000 | scarcely soluble | 18 | – | – |
| CCCCCCCCCCCCCCCC(=O)N[C@H](CO)Cc1ccccc1 [Example 9, N-palmitoyl-[(S)-(-)-2-amino-3-phenyl-1-propanol]] | – | – | scarcely soluble | – | – | solubility [1, 9]: > 10000 µg/mL; activity at 100 µM (RBL-2H3 cells; [10]): 0%; inhibition at 100 µM (RBL-2H3 cells; [4]): 100%; effect of anandamide co-incubation on the ability to inhibit serotonin release (RBL-2H3 cells): reduces the ability |
| CCCCCCCCCCCCCCCC(=O)N[C@@H](CO)Cc1ccccc1 [Example 10, N-palmitoyl-[(R)-(+)-2-amino-3-phenyl-1-propanol]] | – | – | scarcely soluble | – | – | solubility [1, 9]: > 10000 µg/mL; activity at 100 µM (RBL-2H3 cells; [10]): 0%; effect of anandamide co-incubation on the ability to inhibit serotonin release (RBL-2H3 cells): reduces the ability |
| CCCCCCCCCCCC(=O)NCCc1ccc(O)cc1 [Example 11, N-(p-hydroxyphenylethyl)-lauroylamide] | > 10000 | > 10000 | scarcely soluble | 26 | – | – |
| CCCCCCCCCCCC(=O)NCCCO [Example 12, N-(3-hydroxypropyl)-lauroylamide] | > 10000 | > 10000 | scarcely soluble | 44 | 1.1 | inhibition at 100 µM (RBL-2H3 cells; [4]): 86%; inhibition at 100 µM (RBL-2H3 cells; [5]): 100%; IC50 (RBL-2H3 cells; [11]): 29 µM; IC50 (RBL-2H3 cells; read-out: ED50, inhibition of 3H-serotonin release, - anandamide (Table 5), 15 min): 1.1 µM |
| O=C(/C=C/CCCCCCCCC(=O)NCCCO)NCCCO [Example 13, N,N'-bis(3-hydroxypropyl)-trans-2-dodecenediamide] | > 5000 | – | scarcely soluble | – | 32 | inhibition at 200 µM (RBL-2H3 cells; Rattus norvegicus, RBL-2H3, read-out: 3H-serotonin release inhibition %, 0.2% DMSO, 200 μM (Table 8)): 65% |
| CCCCCCCCCCCCCCCC(=O)N(C)CCO [Example 14, N-methyl-N-(2-hydroxyethyl)-palmitoylamide] | > 10000 | – | scarcely soluble | – | – | solubility ([1]; n-octanol, organic solvent or mixture): > 10000 µg/mL |
| CCCCCCCCCCCCCCCC(=O)NC(CO)CO [Example 15, 2-(N-palmitoylamino)-1,3-propandiol] | > 5000 | > 5000 | scarcely soluble | – | – | – |
| CCCCCCCCCCCCCCCC(=O)NCCOP(=O)(O)OCC(O)CO (stereo not shown) [Example 16, N-palmitoylethanolamine glycerophosphate] | > 10000 | – | scarcely soluble | – | – | solubility ([1]; phosphate buffer, pH 7.4, aqueous buffer): > 1000 µg/mL |
| O=C(/C=C/CCCCCCCCC(=O)NCCCCO)NCCCCO [Example 17, N,N'-bis(4-hydroxybutyl)-trans-2-dodecendiamide] | > 5000 | – | scarcely soluble | – | – | – |
| O=C(/C=C/CCCCCCCCC(=O)N1CCOCC1)N1CCOCC1 [Example 38, 1,10-bis-morpholinylcarbonyl-trans-1-decene] | > 10000 | > 10000 | scarcely soluble | – | – | – |
| CCCCC/C=C\C/C=C\CCCCCCCC(=O)NCCO [N-(2-hydroxyethyl)-linoleylamide, reference compound] | – | – | – | – | – | activity at 100 µM (RBL-2H3 cells; [12]): 100% |
| Cc1c(C(=O)c2cccc3ccccc23)c2cccc3c2n1[C@H](CN1CCOCC1)CO3 [WIN 55,212-2, reference compound] | – | – | – | – | – | 3H-serotonin release inhibition (%) (RBL-2H3 cells; 5 μm, (+) N-(2-hydroxyethyl)-palmitoleylamide (Example 19) (Table 7)): 8%; 3H-serotonin release inhibition (%) (RBL-2H3 cells; 5 μm, (-) N-(2-hydroxyethyl)-palmitoleylamide (Table 7)): 8%; 3H-serotonin release inhibition (%) (RBL-2H3 cells; 10 μm, (+) N-(2-hydroxyethyl)-palmitoleylamide (Example 19) (Table 7)): 10%; 3H-serotonin release inhibition (%) (RBL-2H3 cells; 10 μm, (-) N-(2-hydroxyethyl)-palmitoleylamide (Table 7)): 12%; 3H-serotonin release inhibition (%) (RBL-2H3 cells; 50 μm, (+) N-(2-hydroxyethyl)-palmitoleylamide (Example 19) (Table 7)): 24%; 3H-serotonin release inhibition (%) (RBL-2H3 cells; 50 μm, (-) N-(2-hydroxyethyl)-palmitoleylamide (Table 7)): 76%; 3H-serotonin release inhibition (%) (RBL-2H3 cells; 70 μm, (+) N-(2-hydroxyethyl)-palmitoleylamide (Example 19) (Table 7)): 30%; 3H-serotonin release inhibition (%) (RBL-2H3 cells; 70 μm, (-) N-(2-hydroxyethyl)-palmitoleylamide (Table 7)): 96%; 3H-serotonin release inhibition (%) (RBL-2H3 cells; 100 μm, (+) N-(2-hydroxyethyl)-palmitoleylamide (Example 19) (Table 7)): 56%; 3H-serotonin release inhibition (%) (RBL-2H3 cells; 100 μm, (-) N-(2-hydroxyethyl)-palmitoleylamide (Table 7)): 98%; activity at 50 µM (RBL-2H3 cells; [12]): 0%; IC50 (RBL-2H3 cells; [13]): 6.4 µM; inhibition at 30 µM (RBL-2H3 cells; Rattus norvegicus, RBL-2H3, read-out: 3H-serotonin net release inhibition (%), 30 μM, + anandamide (12.5 μM) (Table 4)): 36%; inhibition at 30 µM (RBL-2H3 cells; Rattus norvegicus, RBL-2H3, read-out: 3H-serotonin net release inhibition (%), 30 μM, - anandamide (Table 4)): 100%; 3H-serotonin net release inhibition (%) (RBL-2H3 cells; WIN 55,212-2 30 μm alone (DNP.HSA line, + WIN) (Table 6)): 69%; IC50 (RBL-2H3 cells; [11]): 40 µM; functional effect following receptor activation (serotonin release) (RBL-2H3 cells): able to inhibit, in a concentration-dependent way, RBL cells immunogenic activation |
| CCCCC/C=C\C/C=C\C/C=C\C/C=C\CCCC(=O)O [arachidonic acid, reference compound] | – | – | – | – | – | inhibition at 12.5 µM (RBL-2H3 cells; [14]): 59%; inhibition at 12.5 µM (RBL-2H3 cells; [15]): 4% |
| NCCO [ethanolamine, reference compound] | – | – | – | – | – | inhibition at 12.5 µM (RBL-2H3 cells; [14]): 72%; inhibition at 12.5 µM (RBL-2H3 cells; [15]): 6% |
| CCCCCc1cc(O)c2c(c1)OC(C)(C)[C@@H]1CC=C(C)C[C@@H]21 [Δ8-THC, Δ8-tetrahydrocannabinol, reference compound] | – | – | – | – | – | activity at 25 µM (RBL-2H3 cells; [12]): 0%; IC50 (RBL-2H3 cells; [13]): 5 µM; inhibition at 25 µM (RBL-2H3 cells; Rattus norvegicus, RBL-2H3, read-out: 3H-serotonin net release inhibition (%), 25 μM, - anandamide (Table 4)): 100%; functional effect following receptor activation (serotonin release) (RBL-2H3 cells): able to inhibit, in a concentration-dependent way, RBL cells immunogenic activation |
